How the values were obtained:
[1] = molecular target: T1, GPR37 (Homo sapiens, UniProt O15354); assay: Ca2+ imaging (Fura-2AM) in HEK293 cells transfected with human GPR37 cDNA; assay type: cell-based; conditions: GPR37-expressing HEK293 cells; for intracellular Ca2+ (iCa2+) increase: 3 min
T1 construct: host or cells: HEK293 flip-in cells
T1 sequence (O15354 27-613): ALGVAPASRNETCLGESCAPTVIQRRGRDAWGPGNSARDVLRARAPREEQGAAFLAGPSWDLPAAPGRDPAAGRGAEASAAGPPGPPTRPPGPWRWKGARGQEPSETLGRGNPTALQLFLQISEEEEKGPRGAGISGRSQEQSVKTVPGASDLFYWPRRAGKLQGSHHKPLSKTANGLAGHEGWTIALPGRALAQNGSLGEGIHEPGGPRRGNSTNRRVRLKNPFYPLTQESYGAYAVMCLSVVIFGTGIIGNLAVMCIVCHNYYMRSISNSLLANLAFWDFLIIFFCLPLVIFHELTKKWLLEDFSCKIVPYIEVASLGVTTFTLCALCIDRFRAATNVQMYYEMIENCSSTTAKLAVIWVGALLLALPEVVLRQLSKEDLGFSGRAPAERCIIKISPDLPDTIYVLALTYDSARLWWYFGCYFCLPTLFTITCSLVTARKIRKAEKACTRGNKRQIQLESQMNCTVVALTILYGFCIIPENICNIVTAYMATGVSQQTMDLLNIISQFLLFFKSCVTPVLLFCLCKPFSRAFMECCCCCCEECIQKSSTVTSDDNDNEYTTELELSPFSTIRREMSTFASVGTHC
Protocol: (§1) HEK cell culture and transfection. HEK293 flip-in cell line was purchased from Duke Cell Culture Facility. Cells were cultured in high glucose (4.5 g/L) Dulbecco's Modified Eagle's Medium containing 10% (v/v) fetal bovine serum (Gibco). Transfection (2 μg cDNA) was performed with Lonza electroporation (Lonza) at 70% confluency and the transfected cells were cultured in the same growth medium for 48 h before use. The hGPR37-V5 pLenti304 plasmids were obtained from DNASU (Tempe, AZ), and hGPR32, hChemR23 and hALX pcDNA3 plasmids were provided by Dr. Serhan from Harvard Medical School, Boston.
(§2) Calcium imaging. HEK 293 cells, with or without transfection of Gpr37, GPR32, ChemR23 or ALX1 cDNA, were loaded with 5 μM Fura-2AM (Invitrogen) for 1 hour and then were resuspended in normal external buffer (140 NaCl, 5 KCl, 2 CaCl2, 2 MgCl2, 10 HEPES, in mM, titrated to pH 7.4 with NaOH) or external Ca^2+-free buffer (140 NaCl, 2 MgCl2, 5 EGTA, 10 HEPES, in mM, titrated to pH 7.4 with NaOH). Peritoneal macrophages, collected from WT and Gpr37 KO mice, were loaded with 5 μM […] (Invitrogen) for 1 hour and then were resuspended in normal external buffer. Images of the HEK 293 cells and macrophages with the excitation wavelength of 340 nm and 380 nm were captured with a cooled Digital CMOS camera (ORCA-Flash 4.0, Hamamatsu Photonics K.K, Japan). The ratio of fluorescence intensity of the two wavelengths in each experiment was analyzed using MetaFluor (Molecular Devices). The Shutter speed and wavelength was controlled by Lambda DG-4 system (Sutter instrument Co., Novato, CA). Values from each of the experiments were normalized to the baseline ratio of 340/380 nm.
In order to investigate how GPR37 regulates intracellular signaling, we conducted Ca^2+ imaging in HEK293 cells that overexpress GPR37. […] Thus, we hypothesized TX14 and SPM may activate the same receptors and elicit similar intracellular responses. We transfected HEK293 cells with human GPR37 cDNA, loaded these cells with Ca^2+ dye Fura-2AM, and stimulated them with TX14 and various SPMs, using ionomycin (2 μM) as a positive control for Ca^2+ influx (FIG. 2A, FIG. 2B, FIG. 2C).

[2] = molecular target: T2, GPR32 (Homo sapiens, UniProt O75388); assay: Ca2+ imaging (Fura-2AM) in HEK293 cells transfected with GPR32 cDNA; assay type: cell-based; conditions: HEK293 cells expressing GPR32; RvD1 100 nM
T2 construct: host or cells: HEK293 flip-in cells
Excerpt: (§3) FIG. 10A-FIG. 10C. Characterization of intracellular Ca^2+ changes in HEK293 cells expressing ChemR23, GPR32, and ALX. Ca^2+ imaging with Fura-2AM indicator showing iCa^2+ levels in HEK293 cells transfected with ChemR23 (FIG. 10A), GPR32 (FIG. 10B), and ALX (FIG. 10C) cDNAs. Note that NPD1 fails to elicit iCa^2+ increase in HEK293 cells expressing ChemR23, GPR32, and ALX. […] ATP is included as a positive control. *P<0.05, compared with baseline n=44˜97 cells from 3 cultures. All the data are expressed as mean±s.e.m.
as §1
as §2, with “Values from each of the experiments were normalized to the baseline ratio of 340/380 nm.” left out

[3] = molecular target: T3, ChemR23 (Homo sapiens, UniProt Q99788); assay: Ca2+ imaging (Fura-2AM) in HEK293 cells transfected with ChemR23 cDNA; assay type: cell-based; conditions: HEK293 cells expressing ChemR23; RvE1 100 nM
T3 construct: host or cells: HEK293 flip-in cells
T3 sequence (Q99788 1-373): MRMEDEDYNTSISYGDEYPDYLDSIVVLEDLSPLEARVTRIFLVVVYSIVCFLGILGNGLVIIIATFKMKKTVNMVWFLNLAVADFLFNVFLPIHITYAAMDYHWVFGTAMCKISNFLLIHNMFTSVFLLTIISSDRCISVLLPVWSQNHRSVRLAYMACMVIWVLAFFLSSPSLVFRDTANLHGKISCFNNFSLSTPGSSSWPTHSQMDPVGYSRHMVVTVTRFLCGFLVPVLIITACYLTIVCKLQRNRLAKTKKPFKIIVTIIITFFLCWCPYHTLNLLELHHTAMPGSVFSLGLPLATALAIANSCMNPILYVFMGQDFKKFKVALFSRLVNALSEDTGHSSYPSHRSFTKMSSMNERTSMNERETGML
Excerpt: as §3, §1
as §2, with “Values from each of the experiments were normalized to the baseline ratio of 340/380 nm.” left out

[4] = molecular target: T1, GPR37; assay: Dot blot binding assay with lysates of HEK293 cells with GPR37 cDNA or mock transfection; conditions: for binding to GPR37-containing lysates: blots coated with different concentrations, lysates of HEK293 cells with GPR37 cDNA
Protocol: Lipids overlay assay. Lipids membrane coating and protein overlay assay was conducted as previously described (Ji R R, et al. Science 2016, 354, 572-577). Ethanol and chloroform soluble fatty acids were directly loaded on hydrophobic PVDF membrane (Bio-Rad). The fatty acids (NPD1, RvD1, RvE1, and DHA) coated membranes were dried and blocked with 1% BSA. The cell lysate and purified GPR37-V5 protein were incubated with the coating membrane for 2 h, and the binding was detected by anti-V5 tagged antibody (mouse, 1:1000, Thermo scientific, Catalog: 46-0705).
as §1
To determine whether NPD1 and TX14 bind to GPR37, we conducted dot blot assay by coating the blots with different concentrations of NPD1 and TX14 and included RvE1 as a control. The blots were then incubated with cell lysates from HEK293 cells with GPR37 cDNA or Mock transfection.

T2 sequence (O75388 whole entry): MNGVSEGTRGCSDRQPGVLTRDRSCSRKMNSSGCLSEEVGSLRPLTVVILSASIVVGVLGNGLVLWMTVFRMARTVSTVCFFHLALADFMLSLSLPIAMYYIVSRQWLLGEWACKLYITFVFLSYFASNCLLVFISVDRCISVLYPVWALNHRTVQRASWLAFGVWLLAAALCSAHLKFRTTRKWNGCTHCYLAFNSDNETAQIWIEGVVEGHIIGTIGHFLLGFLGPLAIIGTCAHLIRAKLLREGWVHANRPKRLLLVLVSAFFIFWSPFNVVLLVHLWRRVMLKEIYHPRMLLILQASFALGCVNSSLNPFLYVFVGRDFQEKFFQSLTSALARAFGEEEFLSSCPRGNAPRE

intracellular Ca2+ (iCa2+) increase ([1]; 100 nM)	iCa2+ increase / Ca2+ response [2]	iCa2+ increase / Ca2+ response [3]	binding to GPR37-containing lysates [4]	intracellular Ca2+ (iCa2+) increase ([1]; 30 nM)	EC50 ([1]; dose response, read-out: EC50 of iCa2+ increase)	binding of lysates from mock transfection (GPR37-negative) ([4]; mock-transfected HEK293 lysates)	Structure (SMILES)	binding affinity to GPR37, comparison ([4]; dose-response curve analysis)
failed to increase iCa^2+	failed to evoke Ca^2+ responses	–	–	–	–	–	CC/C=C\C[C@H](O)/C=C/C=C\C=C\C=C\[C@@H](O)[C@@H](O)C/C=C\CCC(=O)O [RvD1]	–
failed to increase iCa^2+	–	failed to evoke Ca^2+ responses	not	–	–	–	CC[C@@H](O)/C=C/C=C\C[C@@H](O)/C=C/C=C/C=C\[C@@H](O)CCCC(=O)O [RvE1]	–
–	failed to elicit iCa^2+ increase	failed to elicit iCa^2+ increase	dose-dependent binding	elicited significant increases	0.026 µM	did not show binding activities	CC/C=C\C[C@H](O)\C=C/C=C/C=C/[C@H](O)C/C=C\C/C=C\CCC(=O)O [NPD1, neuroprotectin D1]	higher binding affinity to GPR37 than TX14

Reference: patent publication US12521356B2, “Compositions and methods for treating pain, inflammation, infection, malaria, and sepsis” (Duke University, priority 2018, dated 2026)
